From PMC2713499 (Biochemistry, 2009)

System: PC-3-Bcl-2 prostate cancer cells
Assay: In vitro cytotoxicity assay
Assay type: cell-based, Human
Conditions: for cytotoxic effects: up to 100,000 nM, PC-3-Bcl-2, in words; for cytotoxic effects / inhibition of proliferation and viability compared to control: 96 h; for inhibition of proliferation and viability compared to control / % surviving fraction compared to mock: MTT, PC-3-Bcl-2; for % surviving fraction compared to mock: 96 hours

| Structure (SMILES) | cytotoxic effects | inhibition of proliferation and viability compared to control (0.01 mM) [%] | inhibition of proliferation and viability compared to control (0.1 mM) [%] | % surviving fraction compared to mock (0.1 mM) [%] |
| --- | --- | --- | --- | --- |
| NS(=O)(=O)c1nnc(NS(=O)(=O)c2ccccc2)s1 [BZM, 1,3,4-Thiadiazole-2-sulfonamide, 5-((phenylsulfonyl)amino)] | no cytotoxic effects |  |  |  |
| CC(=O)Nc1nnc(S(N)(=O)=O)s1 [AZM, N-(5-(aminosulfonyl)-1,3,4-thiadiazol-2-yl)-acetamide] | no cytotoxic effects |  |  |  |
| CCOc1ccc2nc(S(N)(=O)=O)sc2c1 [EZM, 6-ethoxybenzothiazole-2-sulfonamide] | no cytotoxic effects |  |  |  |
| CC(=O)/N=c1/sc(S(N)(=O)=O)nn1C [MZM, N-(3-methyl-5-sulfamoyl-3H-1,3,4-thiadiazol-2-ylidene)] |  | 29 | 32 | 68 |
| NS(=O)(=O)c1nnc(-c2ccccc2Cl)s1 [CHL, 5-[o-chlorophenyl]-1,3,4-thiadiazole-2-sulfonamide] |  |  | 57 | 43 |
